Experimental data published in patent US11365410B2, “Production and monitoring of metabolites in cells” (President and Fellows of Harvard College, priority 2015, dated 2022).

Experiments:
DH5α cells = assay: Toxicity of inducer chemicals and solvents (growth); conditions: for effect on growth: arabinose high concentrations, glucarate highest concentration, ethanol low levels; for concentration at which toxicity was observed: E. coli without resistance gene
Experimental: (§1) Growth rate was measured for each combination of chemical and concentration during the exponential phase of growth. Rates were normalized to the growth rate of cells without any added chemical and plotted as bar height. Concentration of each inducer is indicated in the table, corresponding to the bar chart by order and color. […] Inducer concentrations mirror the concentrations used in the induction experiments.
(§2) 150 μl of cells were transferred into 96-well plates and the assayed chemical was immediately added in triplicate before further incubation at 600 RPM and 37° C.
(§3) Toxicity of the inducer chemicals was measured to help guide the choice of inducer concentration for biosensor applications. In applications where maximum protein production is the goal, toxicity will be less of a consideration. In contrast, sub-toxic induction is important for complex circuits that require the cell to maintain a healthy cell state.

[1] = target: T1, AraC, regulator sequence SEQ ID NO: 10 (Escherichia coli, UniProt P0A9E0); assay: AraC biosensor induction (sfGFP reporter, Hill fit); format: cell-based, E. coli; conditions: arabinose
T1 construct: expressed in transfected cells; host or cells: E. coli DH5alpha transformed with pJKR-H (high copy) or pJKR-L (low copy) plasmid
From the text: (§4) Plasmids were constructed using Gibson isothermal assembly methods (see Gibson, D. G., Young, L., Chuang, R. Y., Venter, J. C., Hutchison, C. A., 3rd and Smith, H. O. (2009) Enzymatic assembly of DNA molecules up to several hundred kilobases. Nat Methods, 6, 343-345 incorporated herein by reference in its entirety) and transformed into DH5α electrocompetent cells (New England Biolabs, Ipswich Mass.). […] Each inducible system was implemented on high and low copy plasmids. High copy pJKR-H plasmids were constructed with the pUC origin and beta lactamase antibiotic resistance marker derived from pUC19 (New England Biolabs, Ipswich Mass.). Low copy pJKR-L plasmids were constructed in the same way, except that the pUC origin was replaced by the SC101 origin (including repA) from pSC101 obtained from American Type Culture Collection (ATCC #37032). […] In both these plasmids the antibiotic resistance gene and origin of replication were replaced with p15a-aadA and colA-kanR. Each enzyme was cloned downstream of the constitutive promoter P2 (see Mutalik, V. K., Guimaraes, J. C., Cambray, G., Lam, C., Christoffersen, M. J., Mai, Q. A., Tran, A. B., Paull, M., Keasling, J. D., Arkin, A. P. et al. (2013) Precise and reliable gene expression via standard transcription and translation initiation elements. Nat Methods, 10, 354-360 hereby incorporated by reference in its entirety) and g10 RBS to create pJKR-MIOX variants. These expression plasmids used the colA origin of replication and kanamycin resistance gene for maintenance. Sequences and plasmids are available on Addgene (plasmid numbers 62557-62570).
(§5) DH5α cells transformed with pJKR plasmids and maintained with carbenicillin were used in the induction assays. For each induction evaluation experiment, the cells were grown overnight to saturation before being diluted 1:100 into fresh LB media and incubated at 200 RPM and 37° C. […] Measurements were made on the same Biotek (Winooksi, Vt.) HT plate reader using the same settings: excitation 485/20, emission 528/20, 37° C. and fast shaking. Fluorescence and absorbance were measured every 10 minutes for 15 hours. Fluorescence was measured in arbitrary units (AFU) while optical density was determined by absorbance (OD). Normalized fluorescence was determined by dividing fluorescence by optical density for a given measurement. […]
(§6) The ratio of fluorescence to absorbance at 600 nm was used in order to compensate for changes in cell density over time and between experiments (AFU/OD). […] This transfer function is plotted on a log-log scale in FIG. 1A and FIG. 1B to capture the wide range of inducer concentrations and resulting fluorescence values. […]

TtgR biosensor = TtgR biosensor induction with phenol and related compounds; format: cell-based, E. coli; conditions: 0.1% phenol, 0.1% catechol, up to 0.4% benzene; fluorescence after 90 minutes
Experimental: All experiments were carried out in triplicate.
DH5α cells transformed with pJKR plasmids and maintained with carbenicillin were used in the induction assays. For each induction evaluation experiment, the cells were grown overnight to saturation before being diluted 1:100 into fresh LB media and incubated at 200 RPM and 37° C. After four hours, 150 μl of the log-phase cells were transferred to 96-well plates and stock inducer was added to achieve the desired range of induction concentrations. Three separate wells were inoculated and independently supplemented with the appropriate amount of inducing chemical for each level of induction. Measurements were made on the same Biotek (Winooksi, Vt.) HT plate reader using the same settings: excitation 485/20, emission 528/20, 37° C. and fast shaking. Fluorescence and absorbance were measured every 10 minutes for 15 hours. Fluorescence was measured in arbitrary units (AFU) while optical density was determined by absorbance (OD). Normalized fluorescence was determined by dividing fluorescence by optical density for a given measurement. Five independent wells containing control strains, transformed with pUC19, were included to provide a measurement of background autofluorescence.

[2] = target: T2, TtgR (Pseudomonas putida), regulator sequence SEQ ID NO: 14 (Pseudomonas putida, UniProt Q9AIU0); assay: TtgR biosensor induction (sfGFP reporter, Hill fit); format: cell-based; conditions: naringenin
T2 construct: expressed in transfected cells; host or cells: E. coli DH5alpha transformed with pJKR-H (high copy) or pJKR-L (low copy) plasmid
From the text: as §4, §5, §6

[3] = target: T3, TetR, regulator sequence SEQ ID NO: 13 (Escherichia coli, UniProt P04483); assay: cell-based; format: cell-based; conditions: anhydrotetracycline; for Fold Induction: 15 h; for EC50: lumped half-maximal parameter from Hill fit
T3 construct: expressed in transfected cells; host or cells: E. coli DH5alpha transformed with pJKR-H (high copy) or pJKR-L (low copy) plasmid
From the text: Plasmids were constructed using Gibson isothermal assembly methods (see Gibson, D. G., Young, L., Chuang, R. Y., Venter, J. C., Hutchison, C. A., 3rd and Smith, H. O. (2009) Enzymatic assembly of DNA molecules up to several hundred kilobases. Nat Methods, 6, 343-345 incorporated herein by reference in its entirety) and transformed into DH5α electrocompetent cells (New England Biolabs, Ipswich Mass.). All standard induction plasmids contained the rrnB strong terminator (see Orosz, A., Boros, I. and Venetianer, P. (1991) Analysis of the complex transcription termination region of the Escherichia coli rrnB gene. European journal of biochemistry/FEBS, 201, 653-659 incorporated herein by reference in its entirety) followed by the inducible promoter and the strong g10 RBS (see Olins, P. O., Devine, C. S., Rangwala, S. H. and Kavka, K. S. (1988) The T7 phage gene 10 leader RNA, a ribosome-binding site that dramatically enhances the expression of foreign genes in Escherichia coli. Gene, 73, 227-235 incorporated herein by reference in its entirety) ‘[…],’ (SEQ ID NO:1) driving the expression of sfGFP (see Pedelacq, J. D., Cabantous, S., Tran, T., Terwilliger, T. C. and Waldo, G. S. (2006) Engineering and characterization of a superfolder green fluorescent protein. […] GFP was followed by a transcriptional terminator prefixing the proB promoter (see Davis, J. H., Rubin, A. J. and Sauer, R. T. (2011) Design, construction and characterization of a set of insulated bacterial promoters. Nucleic acids research, 39, 1131-1141 incorporated herein by reference in its entirety) and strong RBS ‘[…],’ (SEQ ID NO:2) which facilitated expression of the transcriptional regulator. Each inducible system was implemented on high and low copy plasmids. High copy pJKR-H plasmids were constructed with the pUC origin and beta lactamase antibiotic resistance marker derived from pUC19 (New England Biolabs, Ipswich Mass.). Low copy pJKR-L plasmids were constructed in the same way, except that the pUC origin was replaced by the SC101 origin (including repA) from pSC101 obtained from American Type Culture Collection (ATCC #37032). […] The plasmids MphR-p15a-SPEC-mCherry and AcuR-colA-KAN-CFP were designed for compatible maintenance with pJKR-H-CdaR. In both these plasmids the antibiotic resistance gene and origin of replication were replaced with p15a-aadA and colA-kanR. Each enzyme was cloned downstream of the constitutive promoter P2 (see Mutalik, V. K., Guimaraes, J. C., Cambray, G., Lam, C., Christoffersen, M. J., Mai, Q. A., Tran, A. B., Paull, M., Keasling, J. D., Arkin, A. P. et al. (2013) Precise and reliable gene expression via standard transcription and translation initiation elements. Nat Methods, 10, 354-360 hereby incorporated by reference in its entirety) and g10 RBS to create pJKR-MIOX variants. These expression plasmids used the colA origin of replication and kanamycin resistance gene for maintenance. Sequences and plasmids are available on Addgene (plasmid numbers 62557-62570).
DH5α cells transformed with pJKR plasmids and maintained with carbenicillin were used in the induction assays. For each induction evaluation experiment, the cells were grown overnight to saturation before being diluted 1:100 into fresh LB media and incubated at 200 RPM and 37° C. After four hours, 150 μl of the log-phase cells were transferred to 96-well plates and stock inducer was added to achieve the desired range of induction concentrations. Three separate wells were inoculated and independently supplemented with the appropriate amount of inducing chemical for each level of induction. Measurements were made on the same Biotek (Winooksi, Vt.) HT plate reader using the same settings: excitation 485/20, emission 528/20, 37° C. and fast shaking. Fluorescence and absorbance were measured every 10 minutes for 15 hours. Fluorescence was measured in arbitrary units (AFU) while optical density was determined by absorbance (OD). […]

[4] = target: MphR (E. coli), regulator sequence SEQ ID NO: 12 (Escherichia coli, UniProt Q9EVJ6); assay: MphR biosensor induction (sfGFP reporter, Hill fit); format: cell-based; conditions: erythromycin
From the text: as §4, §5, §6

E. coli DH5α cells = assay: Toxicity of inducer chemicals (growth)
Experimental: as §1, §2, §3

## CCO [ethanol]
DH5α cells
  effect on growth: more modest growth benefits

## O=C1C[C@@H](c2ccc(O)cc2)Oc2cc(O)cc(O)c21 [naringenin]
DH5α cells
  concentration at which toxicity was observed: ≥ 330 µM

## OC1OC[C@H](O)[C@H](O)[C@H]1O (stereo partly shown) [Arabinose, arabinose]
[1]; high copy
  Hill Coefficient: 1.3 ± 0.1
  Max Expression Velocity: 3150 ± 60 s⁻¹
[1]; low copy
  Hill Coefficient: 1.3 ± 0.2
  Max Expression Velocity: 1260 ± 50 s⁻¹

## O=C[C@@H](O)[C@H](O)[C@H](O)CO [arabinose]
DH5α cells
  effect on growth: higher growth rates

## O=C(O)[C@@H](O)[C@@H](O)[C@H](O)[C@@H](O)C(=O)O [glucarate]
DH5α cells
  effect on growth: more modest growth benefits

## c1ccccc1 [benzene]
TtgR biosensor
  fluorescent response of TtgR biosensor: background levels of fluorescence

## O=C1C[C@@H](c2ccc(O)cc2)Oc2cc(O)cc(O)c21 [Naringenin, naringenin]
[2]; high copy
  Hill Coefficient: 3.8 ± 0.6
  Max Expression Velocity: 180 ± 6 s⁻¹
[2]; low copy
  Hill Coefficient: 2.3 ± 0.4
  Max Expression Velocity: 25 ± 1 s⁻¹

## Cc1c2c(c(O)c3c(O)cccc13)C(=O)[C@]1(O)C(=O)C(C(N)=O)=C(O)[C@@H](N(C)C)[C@@H]1C2 [Anhydrotetracycline, anhydrotetracycline]
[3]; high copy
  Hill Coefficient: 4.2 ± 0.1
  Max Expression Velocity: 1760 ± 10 s⁻¹
  Fold Induction: 63 ± 3 fold
  EC50: 0.081 ± 0.001 µM
[3]; low copy
  Hill Coefficient: 3.1 ± 0.3
  Max Expression Velocity: 116 ± 2 s⁻¹
  Fold Induction: >50 fold
  EC50: 0.054 ± 0.002 µM

## CC[C@H]1OC(=O)[C@H](C)[C@@H](O[C@H]2C[C@@](C)(OC)[C@@H](O)[C@H](C)O2)[C@H](C)[C@@H](O[C@@H]2O[C@H](C)C[C@H](N(C)C)[C@H]2O)[C@](C)(O)C[C@@H](C)C(=O)[C@H](C)[C@@H](O)[C@]1(C)O [erythromycin]
DH5α cells
  concentration at which toxicity was observed: ≥ 50 µM
DH5α cells; with expression of the erythromycin resistance gene (eryR)
  concentration up to which only slight toxicity was observed: up to 1.4 mM

## CC[C@H]1OC(=O)[C@H](C)[C@@H](O[C@H]2C[C@@](C)(OC)[C@@H](O)[C@H](C)O2)[C@H](C)[C@@H](O[C@@H]2O[C@H](C)C[C@H](N(C)C)[C@H]2O)[C@](C)(O)C[C@@H](C)C(=O)[C@H](C)[C@@H](O)[C@]1(C)O [Erythromycin, erythromycin]
[4]; high copy
  Hill Coefficient: 1.6 ± 0
  Max Expression Velocity: 2070 ± 20 s⁻¹
[4]; low copy
  Hill Coefficient: 1.6 ± 0.1
  Max Expression Velocity: 66 ± 1 s⁻¹
E. coli DH5α cells; 1400 μM and 450 μM erythromycin, low-copy MphR
  Toxicity in induction experiment: high toxicity
E. coli DH5α cells; with eryR, erythromycin up to 1.4 mM
  Toxicity: only slight toxicity

## Oc1ccccc1 [phenol]
TtgR biosensor
  fluorescent response of TtgR biosensor: activated the sensor

## Cc1c2c(c(O)c3c(O)cccc13)C(=O)[C@]1(O)C(=O)C(C(N)=O)=C(O)[C@@H](N(C)C)[C@@H]1C2 [anhydrotetracycline]
DH5α cells; E. coli, defect likely due to solvent ethanol
  concentration at which growth defect was observed: 0.43 µM
